According to article PMC7782168, “Synthesis, telomerase inhibitory and anticancer activity of new 2-phenyl-4H-chromone derivatives containing 1,3,4-oxadiazole moiety” (Journal of Enzyme Inhibition and Medicinal Chemistry, 2020):

Legend:
[1] = molecular target: T1, telomerase (Homo sapiens, UniProt O14746); assay: Telomerase activity assay using MGC-803 cells extract; format: biochemical; conditions: mean ± SD
T1 construct: assayed for telomerase activity using MGC-803 cells extract; endogenous in cells; host or cells: MGC-803 cell extract
T1 sequence (O14746 whole entry): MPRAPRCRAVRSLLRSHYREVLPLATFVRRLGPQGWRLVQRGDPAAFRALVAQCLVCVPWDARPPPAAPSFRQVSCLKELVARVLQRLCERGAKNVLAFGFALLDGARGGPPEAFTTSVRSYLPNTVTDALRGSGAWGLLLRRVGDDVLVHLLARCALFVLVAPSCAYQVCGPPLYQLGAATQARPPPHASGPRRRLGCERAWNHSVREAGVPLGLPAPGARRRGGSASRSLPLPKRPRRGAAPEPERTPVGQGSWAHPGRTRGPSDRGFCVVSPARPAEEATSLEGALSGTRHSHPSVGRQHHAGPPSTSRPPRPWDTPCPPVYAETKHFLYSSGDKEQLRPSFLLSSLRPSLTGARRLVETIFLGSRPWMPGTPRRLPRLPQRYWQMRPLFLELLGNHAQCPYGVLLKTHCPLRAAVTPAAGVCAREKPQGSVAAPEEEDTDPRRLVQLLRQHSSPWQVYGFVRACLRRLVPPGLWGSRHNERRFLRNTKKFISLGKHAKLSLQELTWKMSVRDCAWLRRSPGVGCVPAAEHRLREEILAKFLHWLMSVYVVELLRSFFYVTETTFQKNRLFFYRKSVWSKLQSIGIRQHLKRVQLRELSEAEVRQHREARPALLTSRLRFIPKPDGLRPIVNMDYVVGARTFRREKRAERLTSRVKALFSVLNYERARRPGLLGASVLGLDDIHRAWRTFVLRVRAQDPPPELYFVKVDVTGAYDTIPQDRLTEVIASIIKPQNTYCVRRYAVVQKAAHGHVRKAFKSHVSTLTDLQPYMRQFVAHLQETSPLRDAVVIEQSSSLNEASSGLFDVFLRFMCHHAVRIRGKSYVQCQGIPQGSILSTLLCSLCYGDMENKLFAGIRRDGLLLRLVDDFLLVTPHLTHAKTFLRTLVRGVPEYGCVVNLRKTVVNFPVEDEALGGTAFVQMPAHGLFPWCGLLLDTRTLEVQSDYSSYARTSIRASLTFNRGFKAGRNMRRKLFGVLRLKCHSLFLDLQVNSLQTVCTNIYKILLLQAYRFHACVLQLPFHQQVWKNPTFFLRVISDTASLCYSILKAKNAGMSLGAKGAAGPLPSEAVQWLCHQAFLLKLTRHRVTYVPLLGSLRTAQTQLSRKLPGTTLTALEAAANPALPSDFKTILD
T1 sequence (O60832 2-514 partner limits assumed): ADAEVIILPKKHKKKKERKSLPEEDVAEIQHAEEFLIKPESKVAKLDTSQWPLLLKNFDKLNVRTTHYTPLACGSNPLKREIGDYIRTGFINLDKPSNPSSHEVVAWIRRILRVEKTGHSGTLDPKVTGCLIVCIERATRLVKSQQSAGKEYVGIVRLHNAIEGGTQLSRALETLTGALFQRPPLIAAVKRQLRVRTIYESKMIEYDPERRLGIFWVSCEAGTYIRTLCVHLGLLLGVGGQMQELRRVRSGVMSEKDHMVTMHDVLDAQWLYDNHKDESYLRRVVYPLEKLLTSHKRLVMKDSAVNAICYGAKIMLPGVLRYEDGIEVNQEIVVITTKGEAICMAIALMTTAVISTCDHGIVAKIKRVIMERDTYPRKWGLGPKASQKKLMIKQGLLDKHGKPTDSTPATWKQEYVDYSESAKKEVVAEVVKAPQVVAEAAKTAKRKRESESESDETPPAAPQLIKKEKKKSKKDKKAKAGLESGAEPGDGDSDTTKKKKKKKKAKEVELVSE
T1 sequence (Q9NPE3 whole entry partner): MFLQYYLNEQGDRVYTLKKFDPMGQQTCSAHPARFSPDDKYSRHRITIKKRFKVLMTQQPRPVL
T1 sequence (Q9NX24 whole entry partner): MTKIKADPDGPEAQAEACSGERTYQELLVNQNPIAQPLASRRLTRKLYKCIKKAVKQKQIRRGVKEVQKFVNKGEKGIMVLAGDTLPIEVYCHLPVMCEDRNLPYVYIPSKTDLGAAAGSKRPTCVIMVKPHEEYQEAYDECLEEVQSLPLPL
T1 sequence (Q9NY12 whole entry partner): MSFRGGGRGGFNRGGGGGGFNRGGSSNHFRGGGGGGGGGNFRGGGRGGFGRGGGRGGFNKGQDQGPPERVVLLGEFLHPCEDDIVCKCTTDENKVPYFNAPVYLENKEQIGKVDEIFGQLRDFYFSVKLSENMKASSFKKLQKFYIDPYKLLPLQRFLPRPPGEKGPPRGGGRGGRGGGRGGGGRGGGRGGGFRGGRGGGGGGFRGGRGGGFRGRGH

Structure (SMILES)	IC50 [1]	melting point
COc1cc(OC)c2c(=O)c(OCC(=O)Nc3nnc(-c4ccccc4)o3)c(-c3ccc(OC)c(OC)c3)oc2c1 [B1, 2–(2-(3,4-dimethoxyphenyl)-5,7-dimethoxy-4-oxo-4H-chromen-3-yloxy)-N-(5-phenyl-1,3,4-oxadiazol-2-yl)acetamide]	> 60 µM	237 to 239 °C
COc1cc(OC)c2c(=O)c(OCC(=O)Nc3nnc(-c4cccc(F)c4)o3)c(-c3ccc(OC)c(OC)c3)oc2c1 [B3, 2–(2-(3,4-dimethoxyphenyl)-5,7-dimethoxy-4-oxo-4H-chromen-3-yloxy)-N-(5–(3-fluorophenyl)-1,3,4-oxadiazol-2-yl)acetamide]	4.3 ± 0.77 µM	229 to 231 °C
COc1cc(OC)c2c(=O)c(OCC(=O)Nc3nnc(-c4ccccc4F)o3)c(-c3ccc(OC)c(OC)c3)oc2c1 [B4, 2–(2-(3,4-dimethoxyphenyl)-5,7-dimethoxy-4-oxo-4H-chromen-3-yloxy)-N-(5–(2-fluorophenyl)-1,3,4-oxadiazol-2-yl)acetamide]	15.3 ± 2.71 µM	235 to 237 °C
COc1cc(OC)c2c(=O)c(OCC(=O)Nc3nnc(-c4ccc(Cl)cc4)o3)c(-c3ccc(OC)c(OC)c3)oc2c1 [B5, N-(5–(4-chlorophenyl)-1,3,4-oxadiazol-2-yl)-2–(2-(3,4-dimethoxyphenyl)-5,7-dimethoxy-4-oxo-4H-chromen-3-yloxy)acetamide]	4.22 ± 0.62 µM	213 to 215 °C
COc1cc(OC)c2c(=O)c(OCC(=O)Nc3nnc(-c4cccc(Cl)c4)o3)c(-c3ccc(OC)c(OC)c3)oc2c1 [B6, N-(5–(3-chlorophenyl)-1,3,4-oxadiazol-2-yl)-2–(2-(3,4-dimethoxyphenyl)-5,7-dimethoxy-4-oxo-4H-chromen-3-yloxy)acetamide]	15.4 ± 4.2 µM	220 to 222 °C
COc1cc(OC)c2c(=O)c(OCC(=O)Nc3nnc(-c4ccccc4Cl)o3)c(-c3ccc(OC)c(OC)c3)oc2c1 [B7, N-(5–(2-chlorophenyl)-1,3,4-oxadiazol-2-yl)-2–(2-(3,4-dimethoxyphenyl)-5,7-dimethoxy-4-oxo-4H-chromen-3-yloxy)acetamide]	24.3 ± 2.7 µM	221 to 223 °C
COc1cc(OC)c2c(=O)c(OCC(=O)Nc3nnc(-c4ccc(Br)cc4)o3)c(-c3ccc(OC)c(OC)c3)oc2c1 [B8, N-(5–(4-bromophenyl)-1,3,4-oxadiazol-2-yl)-2–(2-(3,4-dimethoxyphenyl)-5,7-dimethoxy-4-oxo-4H-chromen-3-yloxy)acetamide]	4.29 ± 0.83 µM	212 to 214 °C
COc1cc(OC)c2c(=O)c(OCC(=O)Nc3nnc(-c4ccccc4Br)o3)c(-c3ccc(OC)c(OC)c3)oc2c1 [B10, N-(5–(2-bromophenyl)-1,3,4-oxadiazol-2-yl)-2–(2-(3,4-dimethoxyphenyl)-5,7-dimethoxy-4-oxo-4H-chromen-3-yloxy)acetamide]	> 60 µM	226 to 228 °C
COc1cc(OC)c2c(=O)c(OCC(=O)Nc3nnc(-c4ccc(C)cc4)o3)c(-c3ccc(OC)c(OC)c3)oc2c1 [B11, 2–(2-(3,4-dimethoxyphenyl)-5,7-dimethoxy-4-oxo-4H-chromen-3-yloxy)-N-(5-p-tolyl-1,3,4-oxadiazol-2-yl)acetamide]	5.65 ± 1.77 µM	239 to 241 °C
COc1cc(OC)c2c(=O)c(OCC(=O)Nc3nnc(-c4cccc(C)c4)o3)c(-c3ccc(OC)c(OC)c3)oc2c1 [B12, 2–(2-(3,4-dimethoxyphenyl)-5,7-dimethoxy-4-oxo-4H-chromen-3-yloxy)-N-(5-m-tolyl-1,3,4-oxadiazol-2-yl)acetamide]	> 60 µM	221 to 223 °C
COc1cc(OC)c2c(=O)c(OCC(=O)Nc3nnc(-c4ccccc4C)o3)c(-c3ccc(OC)c(OC)c3)oc2c1 [B13, 2–(2-(3,4-dimethoxyphenyl)-5,7-dimethoxy-4-oxo-4H-chromen-3-yloxy)-N-(5-o-tolyl-1,3,4-oxadiazol-2-yl)acetamide]	8.09 ± 2.25 µM	234 to 236 °C
COc1cc(OC)c2c(=O)c(OCC(=O)Nc3nnc(-c4cccc([N+](=O)[O-])c4)o3)c(-c3ccc(OC)c(OC)c3)oc2c1 [B14, 2–(2-(3,4-dimethoxyphenyl)-5,7-dimethoxy-4-oxo-4H-chromen-3-yloxy)-N-(5–(3-nitrophenyl)-1,3,4-oxadiazol-2-yl)acetamide]	8.29 ± 1.33 µM	235 to 237 °C
COc1cc(OC)c2c(=O)c(OCC(=O)Nc3nnc(-c4ccccc4[N+](=O)[O-])o3)c(-c3ccc(OC)c(OC)c3)oc2c1 [B15, 2–(2-(3,4-dimethoxyphenyl)-5,7-dimethoxy-4-oxo-4H-chromen-3-yloxy)-N-(5–(2-nitrophenyl)-1,3,4-oxadiazol-2-yl)acetamide]	17.2 ± 2.98 µM	254 to 256 °C
COc1cc(OC)c2c(=O)c(OCC(=O)Nc3nnc(-c4cccc(C(F)(F)F)c4)o3)c(-c3ccc(OC)c(OC)c3)oc2c1 [B17, 2–(2-(3,4-dimethoxyphenyl)-5,7-dimethoxy-4-oxo-4H-chromen-3-yloxy)-N-(5–(3-(trifluoromethyl)phenyl)-1,3,4-oxadiazol-2-yl)acetamide]	27.6 ± 3.11 µM	195 to 197 °C
COc1cc(OC)c2c(=O)c(OCC(=O)Nc3nnc(-c4cccc(OC(F)(F)F)c4)o3)c(-c3ccc(OC)c(OC)c3)oc2c1 [B20, 2–(2-(3,4-dimethoxyphenyl)-5,7-dimethoxy-4-oxo-4H-chromen-3-yloxy)-N-(5–(3-(trifluoromethoxy)phenyl)-1,3,4-oxadiazol-2-yl)acetamide]	20 ± 1.96 µM	207 to 209 °C
COc1cc(OC)c2c(=O)c(OCC(=O)Nc3nnc(-c4ccccc4OC(F)(F)F)o3)c(-c3ccc(OC)c(OC)c3)oc2c1 [B21, 2–(2-(3,4-dimethoxyphenyl)-5,7-dimethoxy-4-oxo-4H-chromen-3-yloxy)-N-(5–(2-(trifluoromethoxy)phenyl)-1,3,4-oxadiazol-2-yl)acetamide]	9.22 ± 1.01 µM	226 to 228 °C
COc1ccc(-c2nnc(NC(=O)COc3c(-c4ccc(OC)c(OC)c4)oc4cc(OC)cc(OC)c4c3=O)o2)cc1 [B22, 2–(2-(3,4-dimethoxyphenyl)-5,7-dimethoxy-4-oxo-4H-chromen-3-yloxy)-N-(5–(4-methoxyphenyl)-1,3,4-oxadiazol-2-yl)acetamide]	14.3 ± 1.33 µM	206 to 208 °C
COc1cc(OC)c2c(=O)c(OCC(=O)Nc3nnc(-c4ccc(Cl)c(Cl)c4)o3)c(-c3ccc(OC)c(OC)c3)oc2c1 [B25, N-(5–(3,4-dichlorophenyl)-1,3,4-oxadiazol-2-yl)-2–(2-(3,4-dimethoxyphenyl)-5,7-dimethoxy-4-oxo-4H-chromen-3-yloxy)acetamide]	> 60 µM	230 to 232 °C

Continued, values first:

IC50 [1]	melting point	Structure (SMILES)
2.22 ± 0.51 µM	224 to 226 °C	COc1cc(OC)c2c(=O)c(OCC(=O)Nc3nnc(-c4cccs4)o3)c(-c3cc(OC)c(OC)c(OC)c3)oc2c1 [A32, 2–(5,7-dimethoxy-4-oxo-2–(3,4,5-trimethoxyphenyl)-4H-chromen-3-yloxy)-N-(5-(thiophen-2-yl)-1,3,4-oxadiazol-2-yl)acetamide]
1.38 ± 0.25 µM	236 to 238 °C	COc1cc(OC)c2c(=O)c(OCC(=O)Nc3nnc(-c4ccc(F)cc4)o3)c(-c3ccc(OC)c(OC)c3)oc2c1 [B2, 2–(2-(3,4-dimethoxyphenyl)-5,7-dimethoxy-4-oxo-4H-chromen-3-yloxy)-N-(5–(4-fluorophenyl)-1,3,4-oxadiazol-2-yl)acetamide]
2.9 ± 0.45 µM	204 to 206 °C	COc1cc(OC)c2c(=O)c(OCC(=O)Nc3nnc(-c4cccc(Br)c4)o3)c(-c3ccc(OC)c(OC)c3)oc2c1 [B9, N-(5–(3-bromophenyl)-1,3,4-oxadiazol-2-yl)-2–(2-(3,4-dimethoxyphenyl)-5,7-dimethoxy-4-oxo-4H-chromen-3-yloxy)acetamide]
1.29 ± 0.2 µM	210 to 212 °C	COc1cc(OC)c2c(=O)c(OCC(=O)Nc3nnc(-c4ccc(C(F)(F)F)cc4)o3)c(-c3ccc(OC)c(OC)c3)oc2c1 [B16, 2–(2-(3,4-dimethoxyphenyl)-5,7-dimethoxy-4-oxo-4H-chromen-3-yloxy)-N-(5–(4-(trifluoromethyl)phenyl)-1,3,4-oxadiazol-2-yl)acetamide]
2.79 ± 0.55 µM	225 to 227 °C	COc1cc(OC)c2c(=O)c(OCC(=O)Nc3nnc(-c4ccccc4C(F)(F)F)o3)c(-c3ccc(OC)c(OC)c3)oc2c1 [B18, 2–(2-(3,4-dimethoxyphenyl)-5,7-dimethoxy-4-oxo-4H-chromen-3-yloxy)-N-(5–(2-(trifluoromethyl)phenyl)-1,3,4-oxadiazol-2-yl)acetamide]
1.77 ± 0.6 µM	217 to 219 °C	COc1cc(OC)c2c(=O)c(OCC(=O)Nc3nnc(-c4ccc(OC(F)(F)F)cc4)o3)c(-c3ccc(OC)c(OC)c3)oc2c1 [B19, 2–(2-(3,4-dimethoxyphenyl)-5,7-dimethoxy-4-oxo-4H-chromen-3-yloxy)-N-(5–(4-(trifluoromethoxy)phenyl)-1,3,4-oxadiazol-2-yl)acetamide]
2.44 ± 0.42 µM	205 to 207 °C	COc1cccc(-c2nnc(NC(=O)COc3c(-c4ccc(OC)c(OC)c4)oc4cc(OC)cc(OC)c4c3=O)o2)c1 [B23, 2–(2-(3,4-dimethoxyphenyl)-5,7-dimethoxy-4-oxo-4H-chromen-3-yloxy)-N-(5–(3-methoxyphenyl)-1,3,4-oxadiazol-2-yl)acetamide]
4.17 ± 0.7 µM	232 to 234 °C	COc1cc(OC)c2c(=O)c(OCC(=O)Nc3nnc(-c4ccc(F)c(Cl)c4)o3)c(-c3ccc(OC)c(OC)c3)oc2c1 [B24, N-(5–(3-chloro-4-fluorophenyl)-1,3,4-oxadiazol-2-yl)-2–(2-(3,4-dimethoxyphenyl)-5,7-dimethoxy-4-oxo-4H-chromen-3-yloxy)acetamide]
3.99 ± 0.85 µM	200 to 202 °C	COc1cc(OC)cc(-c2nnc(NC(=O)COc3c(-c4ccc(OC)c(OC)c4)oc4cc(OC)cc(OC)c4c3=O)o2)c1 [B26, N-(5–(3,5-dimethoxyphenyl)-1,3,4-oxadiazol-2-yl)-2–(2-(3,4-dimethoxyphenyl)-5,7-dimethoxy-4-oxo-4H-chromen-3-yloxy)acetamide]
